{
  "source": "paper PMC4553411",
  "about": "“Identification of B6T173 (ZmPrx35) as the prevailing peroxidase in highly insect-resistant maize (Zea mays, p84C3) kernels by activity-directed purification” (Frontiers in Plant Science, 2015)",
  "biological_target": "T1, B6T173 (ZmPrx35) (Zea mays, UniProt B6T173)",
  "T1 construct": "recombinant from p84C3 cDNA, amplified from start codon to stop codon, pET19b (His-tag), E. coli BL21 (DE3) Rosetta gami; class III peroxidase",
  "T1 sequence (B6T173 1-339)": "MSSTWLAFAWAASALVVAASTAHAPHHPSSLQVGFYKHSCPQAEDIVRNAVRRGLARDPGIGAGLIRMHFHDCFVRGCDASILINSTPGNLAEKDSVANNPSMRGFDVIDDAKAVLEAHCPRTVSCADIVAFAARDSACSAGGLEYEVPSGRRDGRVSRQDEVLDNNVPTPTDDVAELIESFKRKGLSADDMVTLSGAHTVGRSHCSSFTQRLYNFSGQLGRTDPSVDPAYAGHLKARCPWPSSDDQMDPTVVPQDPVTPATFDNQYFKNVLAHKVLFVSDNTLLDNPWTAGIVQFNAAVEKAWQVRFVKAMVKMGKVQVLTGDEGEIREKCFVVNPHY",
  "experiment": "in-gel guaiacol-H2O2 activity staining of IMAC fractions",
  "type": "biochemical",
  "conditions": "H2O2 co-substrate; 20 mM guaiacol, 50 mM phosphate pH 6.8",
  "data": [
    {"smiles": "COc1ccccc1O", "note": "[guaiacol]", "values": [
      {"measurement": "in-gel guaiacol-H2O2 activity staining of IMAC fractions", "value": "Guaiacol-H2O2 staining of the same POD fractions"}
    ]}
  ]
}
